Measured values: US20190084939A1, “ANALOGS OF FEXARAMINE AND METHODS OF MAKING AND USING” (Salk Institute for Biological Studies, priority 2014, published 2019)

What was measured:
DIO mice = assay: hyperinsulinemic-euglycemic clamp in DIO mice; format: in vivo
Method: FIGS. 15I-15K are a line graph and two bar graphs showing the effect of fexaramine treatment on body weight, insulin-stimulated GDR, and fasting insulin levels. Mice were fed HFD for 14 weeks, and then administered daily oral injections of vehicle or fexaramine (100 mg/kg) for 3 weeks with HFD. The mice treated with fexaramine were initially heavier (by 2-3 grams). Three weeks after treatment, a clamp study was performed on the mice. Data represent the mean±STD. Statistical analysis was performed with the Student's t test (*p<0.05, **p<0.01).

[1] = test system: C57BL/6J mice with intragastric ethanol feeding; assay: alcoholic liver disease, Tsukamoto-French mouse model; format: in vivo; conditions: ethanol feeding 3 weeks; 100 mg/kg/day oral gavage
Method: FIGS. 44A-44C are a (A) digital image of histology images of the liver and (B) and (C) bar graphs showing that administration of fexaramine can protect the liver from alcoholic liver disease, for example by decreasing fat in the liver, liver enzyme ALT and triglycerides (TG). C57BL/6J mice, fed an isocaloric diet or ethanol through continuous intragastric feeding for 3 weeks, were co-administered Fexaramine (100 mg/kg/day oral gavage) or vehicle. (A) Histological liver sections from ethanol fed mice after vehicle or fexaramine treatment. (B) Bar graph of serum alanine aminotransferase (ALT) levels in vehicle and fexaramine treated mice after 3 weeks of an ethanol diet (C) Liver triglyceride levels in vehicle and fexaramine treated mice after 3 weeks of an ethanol or isocaloric (control) diet.
The Tsukamoto-French mouse model, which involves continuous intragastric feeding of isocaloric diet or ethanol for 3 weeks, was used. C57BL/6J mice were co-administered vehicle or fexaramine by oral gavage (100 mg/kg/day). Mice were sacrificed after treatment and conjugated and unconjugated bile acid levels measured in serum and liver by liquid chromatography/mass spectrometry.

human L cells = assay: oxygen consumption rate of intestinal L cells (Seahorse analyzer); format: cell-based; conditions: fexaramine 1 μM for 24 hours
Method: FIG. 41 is a graph showing the effects of modulating FXR activity on the oxidative metabolism of intestinal L cells. L cells were treated with the FXR agonist fexaramine, the FXR antagonist Guggulsterone, or a combination of both, prior to measurement of their oxygen consumption rate (OCR) in a Seahorse analyzer.
To examine the effects of FXR in the secretion of GLP-1, the metabolic changes induced in human L cells was measured by treatment with the FXR agonist, fexaramine and an FXR antagonist guggulsterone. Treatment of L cells with fexaramine (1 μM for 24 hours) lead to an increase in the oxygen consumption rate (OCR), consistent with increased mitochondrial activity and consequently, an increased energetic state (FIG. 41). The reverse effect was seen after treatment with the FXR antagonist, guggulsterone, with lower OCR after drug treatment.

COC(=O)/C=C/c1cccc(N(Cc2ccc(-c3ccc(N(C)C)cc3)cc2)C(=O)C2CCCCC2)c1 [Fexaramine, fexaramine] was tested, and the “insulin-mediated suppression of HGP” value (DIO mice; versus control DIO mice) was “marked increase”, the “basal HGP, GDR, IS-GDR, FFA suppression and fasting insulin levels” value (DIO mice; weight-matched cohorts) was “No differences” and the hepatic steatosis [1] was “decreasing hepatic steatosis”. For the same molecule, the “serum levels of alanine aminotransferase (ALT)” value [1] was “decreased” and the “oxygen consumption rate (OCR)” value (human L cells) was “increase”.
